Source: article PMC10423278, “Delivered complementation in planta (DCIP) enables measurement of peptide-mediated protein delivery efficiency in plants” (Communications Biology, 2023)
No end group written: not given here.

Key:
f-actin = assay: cytoDCIP delivery-mediated actin labeling (Lifeact/f-actin scaffolding); type: cell-based, Nicotiana benthamiana
Source text: After confirming that recombinant proteins could be efficiently delivered into plant cells with R9 CPP, we asked if delivered proteins could subsequently mediate protein–protein interactions. Being able to mediate protein–protein interactions using delivered proteins could enable new technologies that alter plant physiology. Therefore, in a proof-of-concept experiment, we delivered the 1.9 kDa f-actin binding peptide, Lifeact[50], tagged with GFP11 and R9 (Fig. 6a) into cytoDCIP expressing N. benthamiana leaves. In this scheme, when Lifeact is internalized, GFP11 acts as a scaffold to tether cytoDCIP to actin filaments through the Lifeact/f-Actin interaction. […]
(§1) Excised leaf discs were imaged on a Zeiss LSM880 laser scanning confocal microscope. Images for semi-quantitative analysis were collected using a ×20/1.0NA Plan-apochromat water immersion objective and larger field-of-views were collected using a ×5 objective. […] For quantification experiments, z-stacks were acquired with the imaging depth set to capture the epidermal layer down to the point where mCherry nuclei could no longer be detected. z-stacks from four fields of view were acquired for every treatment condition. Quantitative image analysis and downstream processing was performed using Cell Profiler 3.0. […]

[1] = tested on: DCIP expressing N. benthamiana leaves; assay: Delivered complementation in planta (DCIP), infiltrated leaf discs, confocal imaging of nuclear sfGFP/mCherry; type: cell-based, Nicotiana benthamiana; settings: for DCIP delivery signal, statistical significance vs water infiltration control: N = 6, Kruskal–Wallis/Dunn
Description: The DCIP protocol involves transient expression of DCIP in N. benthamiana. 3 d.p.i., leaves are infiltrated with an aqueous solution of cargo that contains the GFP11 tag. Immediately after infiltration, the infiltrated leaves are either left intact or a leaf disc is excised from the infiltrated area and plated on pH 5.7 ½ MS. After a predetermined incubation time, the leaves are imaged on a confocal laser scanning microscope. For quantitative imaging, the resulting images are then automatically analyzed using Cell Profiler[30] for nuclear sfGFP and mCherry fluorescence (Fig. 1a). A detailed methodology is provided in the “Methods” section.
Three days after agroinfiltration, DCIP-expressing leaves were infiltrated with the treatment solutions. Unless otherwise stated, an 8 mm punch was then excised from the infiltrated area and plated, abaxial side up, onto ½ MS pH 5.7 agar plates. The plates were then left to incubate under ambient conditions for 4–5 h before imaging. For cold temperature treatment, after infiltration with ice-cold solutions of R9-GFP11 and disc excision, the leaf discs were plated onto ice-cold agar and immediately transferred to a 4 °C refrigerator for incubation. After incubation, the agar plates with leaf discs were kept on ice until the moment of imaging. For in situ incubation, leaves were simply infiltrated and the plant was returned to the growing chamber for incubation. All peptides were dissolved in sterile water and all recombinant proteins were dissolved in 10 mM Tris pH 7.4, 10 mM NaCl for infiltration.
Excised leaf discs were imaged on a Zeiss LSM880 laser scanning confocal microscope. Images for semi-quantitative analysis were collected using a ×20/1.0NA Plan-apochromat water immersion objective and larger field-of-views were collected using a ×5 objective. Leaf discs were mounted by sandwiching a droplet of water between the leaf disc and a #1.5 cover glass. BFP, sfGFP, mCherry, and chloroplast autofluorescence images were acquired by excitation with a 405, 488, 561, and 635 nm laser, respectively. The emission bands collected for BFP, sfGFP, mCherry, and autofluorescence were 410–529, 493–550, 578–645, and 652–728 nm, respectively. All images were collected such that the aperture was set to 1 Airy-unit in the mCherry channel. Images and profile plots were prepared for publication using Zen Blue software. Profile plots were smoothed by taking a moving window of three measurements and normalized to the maximum smoothed intensity for each color. For quantification experiments, z-stacks were acquired with the imaging depth set to capture the epidermal layer down to the point where mCherry nuclei could no longer be detected. z-stacks from four fields of view were acquired for every treatment condition. Quantitative image analysis and downstream processing was performed using Cell Profiler 3.0. […] Cell Profiler was then used to quantify the number, mCherry intensity, GFP intensity, and red (mCherry)/green (sfGFP) ratio of the projected nuclei.
Data obtained from Cell Profiler was processed using a script written in Python 3.9. Using the Cell Profiler data, GFP positive nuclei were counted using a Python script by setting a threshold defined as a one-tailed 99% confidence interval above the mean green/red ratio in the untreated control or water infiltration control of each experiment. […]

[2] = tested on: cytoDCIP-expressing N. benthamiana leaf; assay: cytoDCIP nuclear localization of delivered AtWUS; type: cell-based, Nicotiana benthamiana; settings: 140 µM, leaf disc, 6 h
Source text: After establishing the feasibility of using DCIP to assess recombinant protein delivery in intact leaves, we sought to examine R9-mediated delivery of the Arabidopsis plant morphogenic transcription factor, WUSCHEL (AtWUS), in N. benthamiana leaves. AtWUS was chosen as a candidate cargo due to its applications for somatic embryogenesis in plants and its high degree of molecular characterization[54],[55]. […] Because AtWUS is a transcription factor, we also expected to see GFP11-AtWUS-R9 localize to the nucleus without the SV40 NLS of DCIP. To test this, we infiltrated a cytoDCIP-expressing N. benthamiana leaf with 140 µM GFP11-AtWUS-R9. If the delivered AtWUS has active NLS activity, we would expect green fluorescence localized to only the nucleus and excess, uncomplemented mCherry-GFP1-10 to remain in the cytosol. […]
as §1, with “condition.” for “condition. Quantitative image analysis and downstream processing was performed using Cell Profiler 3.0.”

downstream AtWUS genes = assay: RT-qPCR of direct targets of AtWUS in treated seedlings; type: in vivo, Arabidopsis thaliana; settings: 24 h
Description: The previous results in N. benthamiana motivated us to determine whether or not the delivered AtWUS is transcriptionally active. We treated 12-day-old Arabidopsis seedlings for 24 h with 1 µM GFP11-AtWUS-R9. A. thaliana was chosen as a model species due to the well-characterized AtWUS pathway in A. thaliana. Seedlings were subsequently harvested and subjected to RT-qPCR analysis for six known direct targets of AtWUS (Fig. 7d). […] Ectopic expression of AtWUS downregulates the expression of cell identity markers ARR6, AS2, KAN1/2 and YAB3 by binding directly to their promoters[56],[57], and upregulates the expression of its own negative regulator, CLV3[58]. […] In this second experiment, 3 µM of protein was also used due to apparent batch-to-batch variation of activity and lower purity of the recombinant protein (Supplemental Fig. S12b, c).
Arabidopsis (Col-0) seedlings were grown in 12-well culture plates with 8–10 seedlings per well in 1 mL of 1x MS media supplemented with 0.5% sucrose and 2.5 mM MES, pH 5.7. Seeds were sterilized by washing in 70% ethanol for 30 s followed by a 15-min incubation in 50% bleach supplemented with 0.5% Tween-20 and rinsed 5x with DI water. Sterilized seeds were stratified in plates at 4 °C for 3 days after plating. Seedlings were grown at 22 °C under 16-h photoperiods for 12 days. To treat seedlings, the liquid media in each well was replaced with control and WUSCHEL treatments. Control wells were refreshed with 1 mL of MS growth media. WUSCHEL proteins were prepared for use by dialysis into 10 mM MES pH 5.7 for 2 h before dilution to their final concentration. Treatment wells were refreshed with 1 mL of 1 or 3 μM of protein (R9-GFP11, GFP11-AtWUS-R9, GFP11-AtWUS) dissolved in MS growth media. […]
Total RNA was extracted from Arabidopsis seedlings using an RNeasy Plant Mini Kit (Qiagen). […] Relative gene expression was determined using the ddCt method[80] using SAND1 as the reference gene. Relative gene expression was determined from four biological pools each containing 8–10 seedlings. […]

C/C1=C/C(=O)O[C@@H]2C[C@@H](CC[C@H](C)/C=C\CC1)O[C@@](O)([C@@H]1CSC(=O)N1)C2 [LatB, latrunculin B, reference compound]
actin filaments on cotreatment with LatB (f-actin; 25 µM LatB cotreated with GFP11-Lifeact-R9, 6 h): no actin filaments were observed

MGSSHHHHHHENLYFQSNARDHMVLHEYVNAAGITGGGGSGGGGSYFQSNAMGVADLIKKFESISKEEGIGSGSNGNSGSVSRRRRRRRRR* [GFP11-Lifeact-R9]
localization of sfGFP/mCherry signal in cytoDCIP leaves (actin filament labeling) (f-actin; 120 µM, leaf discs, 6 h, pavement cells): robust labeling of actin filaments

RDHMVLHEYVNAAGIT [GFP11]
DCIP delivery signal, statistical significance vs water infiltration control ([1]; 100 μM, 4–5 h): no statistically significant signal

CC[C@H](C)[C@H](NC(=O)CNC(=O)[C@H](C)NC(=O)[C@H](C)NC(=O)[C@H](CC(N)=O)NC(=O)[C@@H](NC(=O)[C@H](Cc1ccc(O)cc1)NC(=O)[C@H](CCC(=O)O)NC(=O)[C@H](Cc1c[nH]cn1)NC(=O)[C@H](CC(C)C)NC(=O)[C@@H](NC(=O)[C@H](CCSC)NC(=O)[C@H](Cc1c[nH]cn1)NC(=O)[C@H](CC(=O)O)NC(=O)[C@H](CCCNC(=N)N)NC(=O)[C@H](CO)NC(=O)CNC(=O)[C@H](CO)NC(=O)CNC(=O)[C@H](CC(C)C)NC(=O)[C@H](Cc1ccc(O)cc1)NC(=O)[C@H](CCCCN)NC(=O)[C@H](CC(C)C)NC(=O)[C@@H](NC(=O)[C@H](CCCCN)NC(=O)[C@H](CCCCN)NC(=O)[C@H](Cc1ccccc1)NC(=O)[C@H](CC(C)C)NC(=O)[C@H](CCCCN)NC(=O)[C@@H](N)CCCCN)[C@@H](C)CC)C(C)C)C(C)C)C(=O)N[C@H](C(=O)O)[C@@H](C)O [BP100-GFP11]
sfGFP complementation observed by confocal imaging (qualitative) ([1]; 100 μM peptide, 4–5 h post-infiltration): rare instances of successful delivery
DCIP delivery signal, statistical significance vs water infiltration control ([1]; 100 μM, 4–5 h): no statistically significant signal

RKKRRQRRRGSGSRDHMVLHEYVNAAGIT [TAT-GFP11]
delivery efficiencies (percent GFP-positive nuclei) ([1]; 100 μM CPP-GFP11 conjugate, 4–5 h, N = 6): 30–80%
delivery efficiency normalized to R9 CPP ([1]; 100 μM, 4–5 h, N = 6): 0.87 times

B1: GFP11-AtWUS: recombinant AtWUS with GFP11 tag, without R9 fusion, 38.5 kDa (plasmid 1BR9-AtWUSSTOP) (protein, UniProt Q9SB92 1-292, looked up)
Protein WUSCHEL: MEPPQHQHHHHQADQESGNNNNNKSGSGGYTCRQTSTRWTPTTEQIKILKELYYNNAIRSPTADQIQKITARLRQFGKIEGKNVFYWFQNHKARERQKKRFNGTNMTTPSSSPNSVMMAANDHYHPLLHHHHGVPMQRPANSVNVKLNQDHHLYHHNKPYPSFNNGNLNHASSGTECGVVNASNGYMSSHVYGSMEQDCSMNYNNVGGGWANMDHHYSSAPYNFFDRAKPLFGLEGHQEEEECGGDAYLEHRRTLPLFPMHGEDHINGGSGAIWKYGQSEVRPCASLELRLN
modifications: GFP11 tag
nuclear localization of delivered protein in cytoDCIP leaf [2]: possessed nuclear localization activity
CLV3 expression in GFP11-AtWUS-treated plants (downstream AtWUS genes; 3 µM): CLV3 downregulation
tested AtWUS target genes regulated in an expected manner, first experimental repeat (downstream AtWUS genes; 3 µM, six genes, N = 4): 3/6
tested AtWUS target genes regulated in an expected manner, second experimental repeat (downstream AtWUS genes; six genes, N = 4, repeat): 1/6
